This assay relates to firefly luciferase activity. As to the kind of experiment: Dual-Glo firefly/renilla luciferase reporter assay in cells. Format: cell-based.
Setting [1] is: 24 h, read-out: Firefly Luciferase IC50 (μM).
Setting [2] is: 24 hrs compound treatment, starting from 3 uM, 1:3 dilution, 10 points, read-out: Firefly Luciferase IC50.

Where two headings read alike, the source gives them in different places.

One may read the IC50 as the concentration needed to halve the response being measured. With `OCCn1cnc(-c2ccccc2Nc2ccc(C(F)(F)F)cc2)c1` [Compound 197, 2-(4-(2-((4-(trifluoromethyl)phenyl)amino)phenyl)-1H-imidazol-1-yl)ethan-1-ol], under setting [1], the IC50 was 0.1 to 1 µM. With `CN(C)CCn1nnc(-c2ccccc2Nc2ccc(C(F)(F)F)cc2)n1` [Compound 50, 2-[2-[2-(dimethylamino)ethyl]tetrazol-5-yl]-N-[4-(trifluoromethyl)phenyl]aniline], under setting [1], the IC50 lay in the range of 0.1 to 1 µM. As to `COc1ccc(Nc2ccc(C(F)(F)F)cc2)c(-c2nnn(CCO)n2)c1` [Compound 240, 2-[5-[5-methoxy-2-[4-(trifluoromethyl)anilino]phenyl]tetrazol-2-yl]ethanol], the IC50 under setting [1] is less than 0.1 µM. For `COc1ccc(-c2nnn(CCO)n2)c(Nc2ccc(C(F)(F)F)cc2)c1` [Compound 241, 2-[5-[4-methoxy-2-[4-(trifluoromethyl)anilino]phenyl]tetrazol-2-yl]ethanol], the IC50 under setting [1] was less than 0.1 µM. For `OCC(CO)n1nnc(-c2ccccc2Nc2ccc(C(F)(F)F)cc2)n1` [Compound 264, 2-(5-(2-((4-(trifluoromethyl)phenyl)amino)phenyl)-2H-tetrazol-2-yl)propane-1,3-diol], the IC50 under setting [2] is less than 0.1 µM.

As for `FCCCn1nnc(-c2ccccc2Nc2ccc(C(F)(F)F)cc2)n1` [Compound 126, 2-[2-(3-fluoropropyl)tetrazol-5-yl]-N-[4-(trifluoromethyl)phenyl]aniline], the IC50 under setting [2] was in the range of 0.1 to 1 µM. On the same count and under the same terms, to `OC1(Cn2nnc(-c3ccccc3Nc3ccc(C(F)(F)F)cc3)n2)CCN(c2ccccc2)C1` (centres unmarked) [Compound 172] belongs 1 to 5 µM. Take `OC1(Cn2nnc(-c3ccccc3Nc3ccc(C(F)(F)F)cc3)n2)CCNCC1` [Compound 135, 4-[[5-[2-[4-(trifluoromethyl)anilino]phenyl]tetrazol-2-yl]methyl]piperidin-4-ol]: under setting [2], the IC50 lay within 1 to 5 µM.

For `FC(F)(F)c1ccc(Nc2ccccc2-c2nnn(CCOC3CCNCC3)n2)cc1` [Compound 198, 2-(2-(2-(piperidin-4-yloxy)ethyl)-2H-tetrazol-5-yl)-N-(4-(trifluoromethyl)phenyl)aniline], the IC50 under setting [1] lay within 0.1 to 1 µM. Consider `FC(F)(F)c1ccc(Nc2ccccc2-c2nnn(C3CCOCC3)n2)cc1` [Compound 122, 2-(2-tetrahydropyran-4-yltetrazol-5-yl)-N-[4-(trifluoromethyl)phenyl]aniline], for which the IC50 under setting [2] was in the range of 0.1 to 1 µM. The same measure, in the same setting: then `NC(=O)NCCn1nnc(-c2ccccc2Nc2ccc(C(F)(F)F)cc2)n1` [Compound 108, 2-[5-[2-[4-(trifluoromethyl)anilino]phenyl]tetrazol-2-yl]ethylurea], with less than 0.1 µM; and `CC(N)Cn1nnc(-c2ccccc2Nc2ccc(C(F)(F)F)cc2)n1` (centres unmarked) [Compound 229, 2-(2-(2-aminopropyl)-2H-tetrazol-5-yl)-N-(4-(trifluoromethyl)phenyl)aniline], with 0.1 to 1 µM. As for `O=C(Cn1nnc(-c2ccccc2Nc2ccc(C(F)(F)F)cc2)n1)C1CC1` [Compound 121, 1-cyclopropyl-2-[5-[2-[4-(trifluoromethyl)anilino]phenyl]tetrazol-2-yl]ethanone], the IC50 under setting [1] was in the range of 0.1 to 1 µM.

For `NCCn1cnc(-c2ccccc2Nc2ccc(C(F)(F)F)cc2)n1` [Compound 230, 2-(1-(2-aminoethyl)-1H-1,2,4-triazol-3-yl)-N-(4-(trifluoromethyl)phenyl)aniline], the IC50 under setting [2] fell in the range of 0.1 to 1 µM. On to `OC1(Cn2nnc(-c3ccccc3Nc3ccc(C(F)(F)F)cc3)n2)CSC1` [Compound 244, 3-[[5-[2-[4-(trifluoromethyl)anilino]phenyl]tetrazol-2-yl]methyl]thietan-3-ol], for which the IC50 under setting [2] is less than 0.1 µM.

Turning to `FC(F)OCCn1nnc(-c2ccccc2Nc2ccc(C(F)(F)F)cc2)n1` [Compound 183, 2-(2-(2-(difluoromethoxy)ethyl)-2H-tetrazol-5-yl)-N-(4-(trifluoromethyl)phenyl)aniline], under setting [1], the IC50 fell in the range of 0.1 to 1 µM.

On to `FC(F)(F)c1ccc(Nc2ccccc2-c2nnn(Cc3ccccn3)n2)cc1` [Compound 52, 2-[2-(2-pyridylmethyl)tetrazol-5-yl]-N-[4-(trifluoromethyl)phenyl]aniline], for which the IC50 under setting [2] lay in the range of 0.1 to 1 µM. With `FC(F)(F)c1ccc(Nc2ccccc2-c2nnn(C3CCOC3)n2)cc1` (centres unmarked) [Compound 119, 2-(2-(tetrahydrofuran-3-yl)-2H-tetrazol-5-yl)-N-(4-(trifluoromethyl)phenyl) Aniline], under setting [2], the IC50 is less than 0.1 µM. Take `CN(C)C(=O)Cn1nnc(-c2ccccc2Nc2ccc(C(F)(F)F)cc2)n1` [Compound 43, N,N-dimethyl-2-[5-[2-[4-(trifluoromethyl)anilino]phenyl]tetrazol-2-yl]acetamide]: the IC50 under setting [1] was in the range of 0.1 to 1 µM. In the case of `CC(C)C(O)Cn1nnc(-c2ccccc2Nc2ccc(C(F)(F)F)cc2)n1` (centres unmarked) [Compound 141, 3-methyl-1-[5-[2-[4-(trifluoromethyl)anilino]phenyl]tetrazol-2-yl]butan-2-ol], the half-inhibitory concentration (IC50) under setting [2] lay in the range of 0.1 to 1 µM. Same read-out and setting: then `OCC(O)Cn1nnc(-c2ccccc2Nc2ccc(C(F)(F)F)cc2)n1` (centres unmarked) [Compound 114, 3-(5-(2-((4-(trifluoromethyl)phenyl)amino)phenyl)-2H-tetrazol-2-yl)propane-1,2-diol], with less than 0.1 µM; and `NS(=O)(=O)NCCn1nnc(-c2ccccc2Nc2ccc(C(F)(F)F)cc2)n1` [Compound 99, 2-[2-(sulfamoylamino)ethyl]-5-[2-[4-(trifluoromethyl)anilino]phenyl]tetrazole], with 1 to 5 µM. `FC(F)(F)Oc1ccc(Nc2ccccc2-c2nnn(Cc3cccnc3)n2)cc1` [Compound 51, 2-[2-(3-pyridylmethyl)tetrazol-5-yl]-N-[4-(trifluoromethoxy)phenyl]aniline]: the IC50 under setting [2] is 1 to 5 µM. Consider `CCOC(=O)Cn1ncc(-c2ccccc2Nc2ccc(C(F)(F)F)cc2)c1C` [Compound 77, ethyl 2-[5-methyl-4-[2-[4-(trifluoromethyl)anilino]phenyl]pyrazol-1-yl]acetate], for which the IC50 under setting [2] is less than 0.1 µM. Take `O=C(O)Cn1cc(-c2ccccc2Nc2ccc(C(F)(F)F)cc2)cn1` [Compound 61, 2-(4-(2-((4-(trifluoromethyl)phenyl)amino)phenyl)-1H-pyrazol-1-yl)acetic Acid]: under setting [2], the IC50 fell in the range of 0.1 to 1 µM.

As to `O=C(Cn1nnc(-c2ccccc2Nc2ccc(C(F)(F)F)cc2)n1)N1CCCC1` [Compound 45, 1-pyrrolidin-1-yl-2-[5-[2-[4-(trifluoromethyl)anilino]phenyl]tetrazol-2-yl]ethanone], the IC50 under setting [2] fell in the range of 0.1 to 1 µM.

Consider `OCCn1nnc(-c2cc(Cl)ccc2Nc2ccc(C(F)(F)F)cc2)n1` [Compound 238, 2-(5-(5-chloro-2-((4-(trifluoromethyl)phenyl)amino)phenyl)-2H-tetrazol-2-yl)ethanol], for which the IC50 under setting [1] was less than 0.1 µM. In the case of `OCCn1nnc(-c2ccccc2Nc2cc(Cl)c(Cl)c(Cl)c2)n1` [Compound 253, 2-(5-(2-((3,4,5-trichlorophenyl)amino)phenyl)-2H-tetrazol-2-yl)ethanol], the IC50 under setting [2] lay in the range of 1 to 5 µM. For `Cn1nnc(-c2ccccc2Nc2ccc(C(F)(F)F)cc2)n1` [Compound 171, 2-(2-methyltetrazol-5-yl)-N-[4-(trifluoromethyl)phenyl]aniline], under setting [2], the IC50 was 0.1 to 1 µM. As to `CCOC(=O)Cn1cc(-c2ccccc2Nc2cccc(C(F)(F)F)c2)cn1` [Compound 58, ethyl 2-(4-(2-((3-(trifluoromethyl)phenyl)amino)phenyl)-1H-pyrazol-1-yl)acetate], the IC50 under setting [2] lay within 0.1 to 1 µM.

For the molecule `FC(F)(F)c1ccc(Nc2ccccc2-c2nnn(C3CCNC3)n2)cc1` (centres unmarked) [Compound 227, 2-(2-(pyrrolidin-3-yl)-2H-tetrazol-5-yl)-N-(4-(trifluoromethyl)phenyl)aniline], the IC50 under setting [2] lay within 0.1 to 1 µM. Turning to `OC1(Cn2nnc(-c3ccccc3Nc3ccc(C(F)(F)F)cc3)n2)CCC1` [Compound 169, 1-((5-(2-((4-(Trifluoromethyl)phenyl)amino)phenyl)-2H-tetrazol-2-yl)methyl)cyclobutanol], under setting [2], the IC50 is less than 0.1 µM.

For the molecule `CC(=O)N1CC(O)(Cn2nnc(-c3ccccc3Nc3ccc(C(F)(F)F)cc3)n2)C1` [Compound 161, 1-[3-hydroxy-3-[[5-[2-[4-(trifluoromethyl)anilino]phenyl]tetrazol-2-yl]methyl]azetidin-1-yl]ethanone], the IC50 under setting [2] lay in the range of 0.1 to 1 µM. Turning to `Cc1ccc(Nc2ccc(C(F)(F)F)cc2)c(-c2nnn(CCO)n2)c1` [Compound 242, 2-(5-(5-methyl-2-((4-(trifluoromethyl)phenyl)amino)phenyl)-2H-tetrazol-2-yl)ethanol], under setting [1], the IC50 was less than 0.1 µM. Regarding `CCN(CC)C(=O)Cn1nnc(-c2ccccc2Nc2ccc(C(F)(F)F)cc2)n1` [Compound 44, N,N-diethyl-2-[5-[2-[4-(trifluoromethyl)anilino]phenyl]tetrazol-2-yl]acetamide], the IC50 under setting [2] was 1 to 5 µM. For the molecule `OCCn1nnc(-c2cnccc2Nc2ccc(C(F)(F)F)cc2)n1` [Compound 78, 2-[5-[4-[4-(trifluoromethyl)anilino]-3-pyridyl]tetrazol-2-yl]ethanol], under setting [1], the IC50 was 1 to 5 µM. Regarding `FC(F)(F)c1ccc(Nc2ccccc2-c2nnn(Cc3cccnc3)n2)cc1` [Compound 40, 2-[2-(3-pyridylmethyl)tetrazol-5-yl]-N-[4-(trifluoromethyl)phenyl]aniline], the IC50 under setting [2] fell in the range of 0.1 to 1 µM. As for `OC(Cn1nnc(-c2ccccc2Nc2ccc(C(F)(F)F)cc2)n1)C(F)(F)F` (centres unmarked) [Compound 131, 1,1,1-trifluoro-3-[5-[2-[4-(trifluoromethyl)anilino]phenyl]tetrazol-2-yl]propan-2-ol], the IC50 under setting [2] is less than 0.1 µM. Turning to `OCCn1nnc(-c2ccccc2Nc2ccc(OC(F)(F)F)cc2)n1` [Compound 11, 2-(5-(2-((4-(Trifluoromethoxy)phenyl)amino)phenyl)-2H-tetrazol-2-yl)ethanol], the IC50 under setting [1] is less than 0.1 µM. `CC(=O)OC1(Cn2nnc(-c3ccccc3Nc3ccc(C(F)(F)F)cc3)n2)CN(C(C)=O)C1` [Compound 162, [1-acetyl-3-[[5-[2-[4-(trifluoromethyl)anilino]phenyl]tetrazol-2-yl]methyl]azetidin-3-yl]acetate]: under setting [2], the IC50 lay within 1 to 5 µM. `CS(=O)(=O)NCCCn1nnc(-c2ccccc2Nc2ccc(C(F)(F)F)cc2)n1` [Compound 109, N-(3-(5-(2-((4-(trifluoromethyl)phenyl)amino)phenyl)-2H-tetrazol-2-yl)propyl)methanesulfonamide]: the IC50 under setting [2] was 1 to 5 µM.

The values above are taken from patent publication US11186554B2, “Non-fused tricyclic compounds” (VIVACE THERAPEUTICS, INC., priority 2017, dated 2021).
